Reference: patent publication US20060276486A1, “Lklf/klf2 gene expression promoter” (KOWA CO., KTD., priority 2003, published 2006)

Legend:
LKLF/KLF2 gene [1] = test: LKLF/KLF2 gene expression in HUVEC by reverse transcription and TaqMan analysis (ABI PRISM 7000); type: cell-based, human; conditions: for effect of added metabolite on the increase of LKLF/KLF2 gene expression by pitavastatin calcium: pitavastatin calcium 1 μmol/L in combination with MVA 100 μmol/L, FPP, GGPP or Cho 10 μmol/L, 8 hours; for activities to promote the expression of LKLF/KLF2 gene (summary statement): cultured human cell system
LKLF/KLF2 gene [2] = test: LKLF/KLF2 gene expression analysis in HUVEC by Human Genome Focus Array (GeneChip); type: cell-based; conditions: control 271
Description: Two days after inoculation of normal human umbilical vein endothelial cells (HUVEC) at 3×10^5 cells/10 cm dish, pitavastatin calcium (indicated as “Pit” in FIG. 1) was added to 1.1 μmol/L. Dimethyl sulfoxide, a solvent for pitavastatin calcium, was added to a control (final concentration: 0.0066 v/v %). Eight hours after the addition, total RNAs were extracted with “ISOGEN” (trade mark, product of NIPPON GENE CO., LTD.). The following procedures were conducted in accordance with the procedures manual of Affymetrix. Inc. Described specifically, following the methods known per se in the art, mRNA was isolated from each total RNA obtained above, and based on the mRNA, cDNA was synthesized. Further, biotin-labeled cRNA was synthesized by in vitro transcription. Subsequent to purification, the biotin-labeled cRNA was subjected to fragmentation by heat treatment to prepare fragmented cRNA for use in a gene expression analysis.
Gene expression analysis method: The fragmented cRNA was poured into “Human Genome Focus Array” (trade name, product of Affymetrix, Inc.), and hybridization was conducted at 45° C. for 16 hours. […] The information was analyzed by “GENECHIP SOFTWARE” (trade name, product of Affymetrix, Inc.) to effect a comparison in expression level.

CC(C)=CCC/C(C)=C/CC/C(C)=C/CC/C(C)=C/COP(=O)(O)OP(=O)(O)O [geranylgeranyl pyrophosphate]
effect of added metabolite on the increase of LKLF/KLF2 gene expression by pitavastatin calcium (LKLF/KLF2 gene [1]; HUVEC): reduced

CSCC[C@H](NC(=O)c1ccc(NC[C@@H](N)CS)cc1-c1ccccc1)C(=O)O [FTI-276]
activities to promote the expression of LKLF/KLF2 gene (summary statement) (LKLF/KLF2 gene [1]): in possession of activities to promote the expression of LKLF/KLF2 gene

O=C(O)C[C@H](O)C[C@H](O)/C=C/c1c(C2CC2)nc2ccccc2c1-c1ccc(F)cc1 [pitavastatin calcium, (3R,5S,6E)-7-[2-cyclopropyl-4-(4-fluorophenyl)-3-quinolyl]-3,5-dihydroxy-6-heptenoic acid]
expression of LKLF/KLF2 gene in HUVEC (expression level) with addition of GGPP (LKLF/KLF2 gene [2]; pitavastatin calcium 1.1 μmol/L plus geranylgeranyl pyrophosphate (GGPP), 8 hours): 355 | expression of LKLF/KLF2 gene in HUVEC (expression level) (LKLF/KLF2 gene [2]; pitavastatin calcium 1.1 μmol/L, 8 hours after addition): 761 | increase of expression of LKLF/KLF2 gene in comparison with the group added with no drug (LKLF/KLF2 gene [1]; HUVEC, 1 μmol/L alone, 8 hours after addition): 693% | activities to promote the expression of LKLF/KLF2 gene (summary statement) (LKLF/KLF2 gene [1]): has activities to promote the expression of LKLF/KLF2 gene

CC(C)CCC[C@@H](C)[C@H]1CC[C@H]2[C@@H]3CC=C4C[C@@H](O)CC[C@]4(C)[C@H]3CC[C@]12C [cholesterol]
effect of added metabolite on the increase of LKLF/KLF2 gene expression by pitavastatin calcium (LKLF/KLF2 gene [1]; HUVEC): not affected

CC(C)=CCC/C(C)=C/CC/C(C)=C/COP(=O)(O)OP(=O)(O)O [farnesyl pyrophosphate]
effect of added metabolite on the increase of LKLF/KLF2 gene expression by pitavastatin calcium (LKLF/KLF2 gene [1]; HUVEC): reduced

COC(=O)[C@H](CC(C)C)NC(=O)c1ccc(NC[C@@H](N)CS)cc1-c1ccccc1 [GGTI-286]
activities to promote the expression of LKLF/KLF2 gene (summary statement) (LKLF/KLF2 gene [1]): in possession of activities to promote the expression of LKLF/KLF2 gene

C[C@@](O)(CCO)CC(=O)O [mevalonic acid]
effect of added metabolite on the increase of LKLF/KLF2 gene expression by pitavastatin calcium (LKLF/KLF2 gene [1]; HUVEC): reduced
